In BindingDB's records for doi:10.1111/cbdd.12604 (Nanjing University, 2015) one finds IC50 data, which are given here for 21 molecules.

Sequence of 72 kDa type IV collagenase (P08253 whole entry): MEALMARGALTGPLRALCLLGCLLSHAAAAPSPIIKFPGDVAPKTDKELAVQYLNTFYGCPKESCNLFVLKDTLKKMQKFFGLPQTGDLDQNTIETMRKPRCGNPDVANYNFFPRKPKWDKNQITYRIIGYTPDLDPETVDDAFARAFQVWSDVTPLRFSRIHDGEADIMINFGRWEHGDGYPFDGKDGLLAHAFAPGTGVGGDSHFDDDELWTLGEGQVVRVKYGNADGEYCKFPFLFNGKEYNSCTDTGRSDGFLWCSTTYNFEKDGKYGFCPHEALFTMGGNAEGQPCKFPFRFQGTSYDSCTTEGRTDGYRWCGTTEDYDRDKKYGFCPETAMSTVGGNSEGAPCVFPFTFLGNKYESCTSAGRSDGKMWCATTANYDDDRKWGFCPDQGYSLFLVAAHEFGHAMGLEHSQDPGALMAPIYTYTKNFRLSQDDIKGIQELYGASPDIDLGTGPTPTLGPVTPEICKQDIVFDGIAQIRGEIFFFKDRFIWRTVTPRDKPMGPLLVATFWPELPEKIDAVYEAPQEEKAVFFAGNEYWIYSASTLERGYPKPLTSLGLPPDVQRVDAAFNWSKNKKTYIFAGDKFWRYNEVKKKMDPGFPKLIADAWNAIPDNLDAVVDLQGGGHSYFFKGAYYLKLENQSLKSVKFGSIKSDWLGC

The assay deals with 72 kDa type IV collagenase (Homo sapiens, UniProt P08253). Briefly: MMP-2 Inhibition Assay. Here is the method:
This esterase assay used 4-nitrophenylacetate as a substrate. Initially, the rhMMP-2 was diluted to 100 µg/mL with 1 mM APMA in assay buffer. Later, the reaction was incubated at 37℃ for 1 hour. Then the rhMMP-2 was diluted to 0.2 µg/mL in assay buffer, whereas the substrate was diluted to 20 µM by assay buffer. To each well of 96-well plate, 50 µL diluted rhMMP-2 was loaded along with 100 µL diverse concentration of test compounds. The reaction was started by adding 50 μL of 20 μM substrate to each well. After progress in kinetic mode for 5 minutes, the results were read at excitation and emission wavelengths of 320 nm and 405 nm, respectively.
As a reminder, the IC50 is the midpoint of a concentration-inhibition curve. The low end stands for inhibition by little substance, the high end for a need for much substance. Turning to `NS(=O)(=O)c1ccc(N2N=C(c3ccccc3Cl)CC2c2ccccc2O)cc1` (stereo unspecified) [4-(3-(2-Chlorobenzene)-5-(2-hydroxyphenyl)-4,5-dihydropyrazole) benzene sulfonamide (4b)], inhibition was half-maximal at 11.5 µM (IC50).

In the case of `NS(=O)(=O)c1ccc(N2N=C(c3ccc(Cl)c(Cl)c3)CC2c2ccccc2O)cc1` (stereo unspecified) [4-(3-(3,4-Dichlorobenzenebase)-5-(2-hydroxyphenyl)-4,5-dihydropyrazole) benzene sulfonamide (4g)], the half-maximal inhibitory concentration (IC50) came to 12.9 µM.

In turn, `Cc1ccc(C2=NN(c3ccc(S(N)(=O)=O)cc3)C(c3ccccc3O)C2)cc1C` (stereo unspecified) [4-(3-(3,4-Dimethylphenyl)-5-(2-hydroxyphenyl)-4,5-dihydropyrazole) benzene sulfonamide (4f)] showed an IC50 of 4.65 µM.

In turn, `NS(=O)(=O)c1ccc(N2N=C(c3ccc(Br)cc3)CC2c2cc(Cl)ccc2O)cc1` (stereo unspecified) [4-(3-(4-Brominephenyl)-5-(5-chloro-2-hydroxyphenyl)-4,5-dihydropyrazole) benzene sulfonamide (4m)] had an IC50 of 18.9 µM.

`COc1cccc(C2=NN(c3ccc(S(N)(=O)=O)cc3)C(c3ccccc3O)C2)c1` (stereo unspecified) [4-(5-(2-Hydroxyphenyl)-3-(3-oxygenmethylphenyl)-4,5-dihydropyrazole) benzene sulfonamide (4e)] came in with a concentration for half-maximal inhibition (IC50) of 1.81 µM.

Molecule `NS(=O)(=O)c1ccc(N2N=C(c3ccc(F)cc3)CC2c2ccccc2O)cc1` (stereo unspecified) [4-(5-(2-Hydroxyphenyl)-3-(4-fluorinatedphenyl)-4,5-dihydropyrazole) benzene sulfonamide (4x)] came in with a 50% inhibitory concentration (IC50) of 24.7 µM.

Molecule `COc1ccc(C2=NN(c3ccc(S(N)(=O)=O)cc3)C(c3ccccc3O)C2)cc1` (stereo unspecified) [4-(5-(2-Hydroxyphenyl)-3-(4-methoxyphenyl)-4,5-dihydropyrazole) benzene sulfonamide (4y)] came in with a half-inhibitory concentration (IC50) of 1.83 µM.

In turn, `NS(=O)(=O)c1ccc(N2N=C(c3ccccc3Cl)CC2c2cc(Br)ccc2O)cc1` (stereo unspecified) [4-(5-(5-Bromine-2-hydroxyphenyl)-3-(2-chlorobenzene)-4,5-dihydropyrazole) benzene sulfonamide (4t)] came in with a half-inhibitory concentration (IC50) of 15 µM.

Take `NS(=O)(=O)c1ccc(N2N=C(c3ccc(Cl)c(Cl)c3)CC2c2cc(Br)ccc2O)cc1` (stereo unspecified) [4-(5-(5-Bromine-2-hydroxyphenyl)-3-(3,4-dichlorobenzene)-4,5-dihydropyrazole) benzene sulfonamide (4w)]: half-maximal inhibition (IC50) was put at 16.2 µM.

As for `COc1cccc(C2=NN(c3ccc(S(N)(=O)=O)cc3)C(c3cc(Br)ccc3O)C2)c1` (stereo unspecified) [4-(5-(5-Bromine-2-hydroxyphenyl)-3-(3-oxygenmethylphenyl)-4,5-dihydropyrazole) benzene sulfonamide (4r)], the IC50 was 3.23 µM.

`NS(=O)(=O)c1ccc(N2N=C(c3ccc(Br)cc3)CC2c2cc(Br)ccc2O)cc1` (stereo unspecified) [4-(5-(5-Bromine-2-hydroxyphenyl)-3-(4-brominephenyl)-4,5-dihydropyrazole) benzene sulfonamide (4v)] gave a concentration for half-maximal inhibition (IC50) of 8.73 µM.

Take `NS(=O)(=O)c1ccc(N2N=C(c3ccc(Cl)cc3)CC2c2cc(Br)ccc2O)cc1` (stereo unspecified) [4-(5-(5-Bromine-2-hydroxyphenyl)-3-(4-chlorobenzene)-4,5-dihydropyrazole) benzene sulfonamide (4u)]: the midpoint of inhibition, the IC50, lay at 15.8 µM.

`NS(=O)(=O)c1ccc(N2N=C(c3ccccc3)CC2c2cc(Br)ccc2O)cc1` (stereo unspecified) [4-(5-(5-Bromine-2-hydroxyphenyl)-3-phenyl-4,5-dihydropyrazole) benzene sulfonamide (4q)] gave a concentration for half-maximal inhibition (IC50) of 12.8 µM.

Consider `NS(=O)(=O)c1ccc(N2N=C(c3ccccc3Cl)CC2c2cc(Cl)ccc2O)cc1` (stereo unspecified) [4-(5-(5-Chloro-2-hydroxyphenyl) -3 - (2 - chlorobenzene) - 4, 5 - dihydropyrazole) benzene sulfonamide (4i)], for which inhibition was half-maximal at 16.4 µM (IC50).

`NS(=O)(=O)c1ccc(N2N=C(c3ccc(Cl)c(Cl)c3)CC2c2ccc(Cl)cc2O)cc1` (stereo unspecified) [4-(5-(5-Chloro-2-hydroxyphenyl)-3-(3,4-dichlorobenzenebase)-4,5-dihydropyrazole) benzene sulfonamide (4n)] yielded a half-maximal inhibitory concentration (IC50) of 16.5 µM.

As to `COc1cccc(C2=NN(c3ccc(S(N)(=O)=O)cc3)C(c3cc(Cl)ccc3O)C2)c1` (stereo unspecified) [4-(5-(5-Chloro-2-hydroxyphenyl)-3-(3-oxygenmethylphenyl)-4,5-dihydropyrazole) benzene sulfonamide (4p)], inhibition was half-maximal at 2.13 µM (IC50).

`NS(=O)(=O)c1ccc(N2N=C(c3ccc(Cl)cc3)CC2c2cc(Cl)ccc2O)cc1` (stereo unspecified) [4-(5-(5-Chloro-2-hydroxyphenyl)-3-(4-chlorobenzene)-4,5-dihydropyrazole) benzene sulfonamide (4k)] gave an IC50 of 11.3 µM.

For `CCOc1ccc(C2=NN(c3ccc(S(N)(=O)=O)cc3)C(c3ccc(Cl)cc3O)C2)cc1` (stereo unspecified) [4-(5-(5-Chloro-2-hydroxyphenyl)-3-(4-phenylethyloxygen)-4,5-dihydropyrazole) benzene sulfonamide (4o)], inhibition was half-maximal at 3.84 µM (IC50).

In turn, `NS(=O)(=O)c1ccc(N2N=C(c3ccccc3)CC2c2ccc(Cl)cc2O)cc1` (stereo unspecified) [4-(5-(5-Chloro-2-hydroxyphenyl)-3-phenyl)-4,5-dihydro benzene sulfonamide pyrazole) (4j)] showed a 50% inhibitory concentration (IC50) of 13.5 µM.

With `C[C@@]1(O)c2cccc(O)c2C(O)=C2C(=O)[C@]3(O)C(O)=C(C(N)=O)C(=O)C[C@@H]3C[C@@H]21` [(4aS,5aS,6S,12aR)-1,6,10,11,12a-pentahydroxy-6-methyl-3,12-dioxo-4,4a,5,5a-tetrahydrotetracene-2-carboxamide], the IC50 was found to be 1.13 µM.

Take `COc1ccc(C2=NN(c3ccc(S(N)(=O)=O)cc3)C(c3ccc(Cl)cc3O)C2)cc1` (stereo unspecified) [-(5-(5-Chloro-2-hydroxyphenyl)-3-(4-methylphenyloxygen)-4,5-dihydropyrazole) benzene sulfonamide (4l)]: the IC50 was 4.62 µM.
